The values that follow are results of earlier work, collected in doi:10.1101/2023.11.06.565863v1 (bioRxiv, 2023).

Molecules are shown by their SMILES.

Data set [1] relates to R1441C-LRRK2 MEFs.
The test system of data set [2] is R1441C-LRRK2 MEFs. The source holds these as a separate data set.

As for `C[C@@H]1CN(c2cc(-c3n[nH]c4ccc(OC5(C)CC5)cc34)ncn2)C[C@H](C)O1` [MLi2], the “Ciliogenesis defects of R1441C-LRRK2 MEFs vs littermate wildtype MEFs” value in data set [1] is given as “reverted”. In data set [2], the “Centrosome cohesion defects of R1441C-LRRK2 MEFs vs littermate wildtype MEFs” value was “reverted”.
